One assay deals with T1, recombinant Aurora A (Homo sapiens, UniProt O14965).
T1 construct: purchased Upstate, Lake Placid, N.Y
T1 sequence (O14965 1-403): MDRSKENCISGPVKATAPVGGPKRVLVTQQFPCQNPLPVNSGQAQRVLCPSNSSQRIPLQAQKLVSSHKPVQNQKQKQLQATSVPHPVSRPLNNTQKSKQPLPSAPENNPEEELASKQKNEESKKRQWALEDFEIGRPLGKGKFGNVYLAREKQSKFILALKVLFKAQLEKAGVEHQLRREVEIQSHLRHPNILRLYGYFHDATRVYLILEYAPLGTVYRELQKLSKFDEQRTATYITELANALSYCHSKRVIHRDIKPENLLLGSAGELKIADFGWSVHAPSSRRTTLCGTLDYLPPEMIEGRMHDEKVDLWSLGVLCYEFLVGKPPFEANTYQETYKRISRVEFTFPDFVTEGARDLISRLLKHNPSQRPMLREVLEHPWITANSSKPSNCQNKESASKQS
In words: Aurora A (Aurora 2) inhibition assay, Z'-Lyte kinase assay. To be noted: ATP 10 μM, 1 h. Type of assay: biochemical. The protocol: Compounds were tested for their potency against recombinant Aurora A (Upstate, Lake Placid, N.Y.) using the PanVera Z′-Lyte kinase assay kit—Ser/Thr 1 peptide (Invitrogen, Carlsbad, Calif.). Assays were carried out in kinase assay buffer (50 mM HEPES, pH 7.5, 10 mM MgCl2, 5 mM EGTA, 0.05% Brij-35, 2 mM DTT). Test compounds were initially dissolved in DMSO at 100× the highest tested concentration, then serially diluted to 4× test concentrations in kinase assay buffer. Next, Aurora A (final concentration 200-500 ng/mL), Z′-Lyte Ser/Thr 1 peptide (final concentration 2 μM) and ATP (final concentration 10 μM) were added according to the manufacturer's instructions. Assays were carried out in half-area 96-well white polystyrene assay plates (Corning, Corning, N.Y.) in a final volume of 20 μl. The reaction was allowed to proceed for 1 h at room temperature in the dark, at which point the development reagent and stop reagent were added according to the manufacturer's instructions. Coumarin (Ex. 400 nm, Em. 465 nm) and fluorescein (Ex. 400 nm, Em. 565 nm) fluorescence values were measured on a SpectraFluor Plus plate reader (Tecan, Durham, N.C.). The emission ratio (coumarin/fluorescein) was determined and used to calculate the percent phosphorylation for each well. Wells containing substrate but no kinase and wells containing a phosphopeptide control were used to set 0% and 100% phosphorylation values, respectively. Typically 20-40% of the substrate was phosphorylated in wells without inhibitor. Dose-response curves of relative Aurora A activity vs. inhibitor concentration were plotted with Grafit (Erithacus Software, Horley, Surrey, UK).

For assay [1], the target named is T2, N-terminal GST-tagged recombinant human Flt3, residues 564-end (Homo sapiens, UniProt P36888).
T2 construct: recombinant human Flt3, residues 564-end; GST (N); purchased Upstate USA Inc, 706 Forest Street, Charlottesville, Va
T2 sequence (P36888 564-993 limits assumed): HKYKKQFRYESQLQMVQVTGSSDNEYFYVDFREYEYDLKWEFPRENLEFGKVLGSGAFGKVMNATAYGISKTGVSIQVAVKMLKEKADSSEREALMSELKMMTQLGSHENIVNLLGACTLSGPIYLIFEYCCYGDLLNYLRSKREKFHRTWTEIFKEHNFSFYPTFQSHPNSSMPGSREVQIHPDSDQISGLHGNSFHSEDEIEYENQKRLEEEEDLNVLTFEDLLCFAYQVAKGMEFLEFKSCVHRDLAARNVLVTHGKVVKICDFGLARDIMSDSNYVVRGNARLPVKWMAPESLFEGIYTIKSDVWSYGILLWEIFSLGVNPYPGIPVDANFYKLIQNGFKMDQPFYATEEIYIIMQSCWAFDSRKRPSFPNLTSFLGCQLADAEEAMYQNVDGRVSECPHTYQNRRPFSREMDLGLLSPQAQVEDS
The assay is described as follows: Flt3 kinase inhibition assay (33P-ATP filter assay). The assay is classed as biochemical. To be noted: 40 minutes at room temperature. The procedure, abridged: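 Serial compound dilutions incubated 40 min at room temperature with 5-10 mU Flt3 kinase, 50 μM peptide substrate and [γ-33P]ATP/10 mM magnesium acetate, pH 7.0. Phosphoric acid stop, filter capture and scintillation counting; activity compared with uninhibited reactions.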

[2] abbreviates: group with IC50 greater than 100 nM.

A value given as a limit tells only on which side of the number the result lay.

As to `Cc1cc(Nc2cc(NC3CCOCC3)nc(-c3ccc(F)cc3)n2)n[nH]1` [Compound 19, 2-(4-fluorophenyl)-N^4-(5-methyl-1H-pyrazol-3-yl)-N^6-(tetrahydro-2H-pyran-4-yl)pyrimidine-4,6-diamine], the IC50 (as a rule, the concentration that gives 50% inhibition) at recombinant Aurora A (setting [2]) is not above 1 µM; in assay [1], not above 0.1 µM.
Take `Cc1cc(Nc2cc(NC3CCOCC3)nc(-c3ccc4c(c3)OCCO4)n2)n[nH]1` [Example 130, 2-(2,3-dihydrobenzo[b][1,4]dioxin-6-yl)-N^4-(5-methyl-1H-pyrazol-3-yl)-N^6-(tetrahydro-2H-pyran-4-yl)pyrimidine-4,6-diamine]: the IC50 (on recombinant Aurora A; in assay [1]) was not above 0.1 µM in each case.
Turning to `CCOc1cccc(-c2nc(Nc3cc(C)[nH]n3)cc(N3CCN(C)CC3)n2)c1` [Example 190, 2-(3-ethoxyphenyl)-N-(5-methyl-1H-pyrazol-3-yl)-6-(4-methylpiperazin-1-yl)pyrimidin-4-amine], the IC50 (on recombinant Aurora A; in assay [1]) was not above 0.1 µM each time.
For the compound `Cc1cc(Nc2cc(NC3CCOCC3)nc(-c3cccc(-c4ccccc4)c3)n2)n[nH]1` [Example 159, 2-(biphenyl-3-yl)-N^4-(5-methyl-1H-pyrazol-3-yl)-N^6-(tetrahydro-2H-pyran-4-yl)pyrimidine-4,6-diamine], the IC50 (on recombinant Aurora A; in assay [1]) was not above 0.1 µM throughout.
As to `Cc1cc(Nc2cc(NC3CCOCC3)nc(-c3ccc(Cl)cc3)n2)n[nH]1` [Compound 22, 2-(4-chlorophenyl)-N^4-(5-methyl-1H-pyrazol-3-yl)-N^6-(tetrahydro-2H-pyran-4-yl)pyrimidine-4,6-diamine], the IC50 on recombinant Aurora A (setting [2]) was not above 1 µM; in assay [1], not above 0.1 µM.
As to `Cc1cc(Nc2cc(N3CCN(C)CC3)nc(-c3ccc(Cl)cc3)n2)n[nH]1` [Compound 35, 2-(4-chlorophenyl)-N-(5-methyl-1H-pyrazol-3-yl)-6-(4-methylpiperazin-1-yl)pyrimidin-4-amine], the IC50 (at recombinant Aurora A; in assay [1]) was not above 0.1 µM in each case.
In the case of `COCCN(C)c1cc(Nc2cc(C)[nH]n2)nc(-c2cccc(N(C)C)c2)n1` [Compound 119, 2-(3-(dimethylamino)phenyl)-N^4-(2-methoxyethyl)-N^4-methyl-N^6-(5-methyl-1H-pyrazol-3-yl)pyrimidine-4,6-diamine], the IC50 (on recombinant Aurora A; in assay [1]) was not above 0.1 µM each time.
Regarding `Cc1cc(Nc2cc(N3CCN(C)CC3)nc(-c3cccc(OC(F)(F)F)c3)n2)n[nH]1` [Example 192, N-(5-methyl-1H-pyrazol-3-yl)-6-(4-methylpiperazin-1-yl)-2-(3-(trifluoromethoxy)phenyl)pyrimidin-4-amine], the IC50 (at recombinant Aurora A; in assay [1]) was not above 0.1 µM in each case.
In the case of `Cc1cc(Nc2cc(NC3CCOCC3)nc(-c3ccc4c(c3)OCO4)n2)n[nH]1` [Example 132, 2-(benzo[d][1,3]dioxol-5-yl)-N^4-(5-methyl-1H-pyrazol-3-yl)-N^6-(tetrahydro-2H-pyran-4-yl)pyrimidine-4,6-diamine], the IC50 (on recombinant Aurora A; in assay [1]) was not above 0.1 µM throughout.
For the compound `Cc1cc(Nc2cc(N3CCN(C)CC3)nc(-c3cccc(OCc4ccccc4)c3)n2)n[nH]1` [Example 188, 2-(3-(benzyloxy)phenyl)-N-(5-methyl-1H-pyrazol-3-yl)-6-(4-methylpiperazin-1-yl)pyrimidin-4-amine], the IC50 (at recombinant Aurora A; in assay [1]) was not above 0.1 µM each time.
Turning to `Cc1ccc(C)c(-c2nc(Nc3cc(C)[nH]n3)cc(N3CCN(C)CC3)n2)c1` [Example 201, 2-(2,5-dimethylphenyl)-N-(5-methyl-1H-pyrazol-3-yl)-6-(4-methylpiperazin-1-yl)pyrimidin-4-amine], the IC50 on recombinant Aurora A (setting [2]) is not above 1 µM; in assay [1], not above 0.1 µM.
As for `Cc1cc(Nc2cc(N3CCN(C)CC3)nc(-c3ccc4c(c3)OC(F)(F)O4)n2)n[nH]1` [Example 178, 2-(2,2-difluorobezo[d][1,3]dioxol-5-yl)-N-(5-methyl-1H-pyrazol-3-yl)-6-(4-methylpiperazin-1-yl)pyrimidin-4-amine], the values for the IC50 (at recombinant Aurora A (setting [2]); in assay [1]) were not above 1 µM and not above 0.1 µM, respectively.
